Data from paper PMC12137978, “Design, molecular characterization and therapeutic investigation of a novel CCR8 peptide antagonist that attenuates acute liver injury by inhibiting infiltration and activation of macrophages” (Acta Pharmaceutica Sinica. B, 2025).
Where no end group is shown, it is not given here.

B1: CCL1: Human Recombinant I-309 (CCL1), CCR8 ligand (300-37-B, Tebu-bio) (protein, UniProt P22362 24-96, looked up)
C-C motif chemokine 1: KSMQVPFSRCCFSFAEQEIPLRAILCYRNTSSICSNEGLIFKLKRGKEACALDTVGWVQRHRKMLRHCPSKRK

How the values were obtained:
[1] = AP8ii peptide stability in human serum by analytic HPLC; type: in vitro ADME; settings: 37 °C
Description: Analytic HPLC measurements were conducted in an Agilent 1260 Infinity II Liquid Chromatography system, equipped with a Polaris C18 column and a UV–Vis detector. The samples were analyzed with a mobile phase of MilliQ (solvent A) and acetonitrile (solvent B), both containing 0.1% v/v of formic acid, using a 1 mL/min flow rate within a run of 22 min. The gradient ramp was from 1% solvent B up to 60% solvent B in 15 min, then from 60% solvent B to 99% solvent in 5 min, finally 2 min at 99% of solvent B. Each injection used 50 μL, out of the 150 μL in the vial. Detection was performed at λ = 280 nm. Integration of the signals (e.g., peak area) in the chromatogram was performed using OpenLab CDS (data analysis software).
An adapted protocol based on[43] was followed for analysis. In a vial, 475 μL of 1 mmol/L peptide solution was mixed with 50 μL of human serum (making 0.95 mmol/L peptide in 10 vol% serum). The sample was incubated at 37 °C for increasing time. At 0, 1, 2, 4 and 24 h, an aliquot of 125 μL was taken from the vial, quenched with 50 μL of 10% TFA solution in MilliQ and centrifuged for 1 min at 13,000 rpm. Then 150 μL of the supernatant was taken for analysis. Control samples containing only peptide (e.g., without serum) and only human serum (e.g., without peptide) were included. All measurements were conducted in duplicates. Data of peak absolute area were expressed as mean ± standard deviation (SD).

[2] = system: C57BL/6 mice with CCl4-induced acute liver injury; assay: CCl4-induced acute liver injury mouse model; type: in vivo; settings: 1 μmol/kg twice daily, 2 days after CCl4
Description: All the animal experiments were carried out according to the ethical guidelines for the Care and Use of Laboratory Animals (Utrecht University, The Netherlands). CCl4 was prepared in olive oil ([…], 63.76 mg/mL) and AP8ii (1 μmol/kg) and R243 (1 μmol/kg) were prepared in hydroxypropyl-β-cyclodextrin (10%) and Kolliphor HS15 (5%) containing MilliQ water (85%). Male C57BL/6 mice (12 weeks old) received a single intraperitoneal injection (IP) of olive oil (healthy n = 9) or 0.2 mL/kg (318.8 mg/kg) CCl4 (vehicle n = 9, AP8 n = 9 and R243 n = 9) on Day 1. On Days 2 and 3, the CCl4-treated mice received vehicle, 1 μmol/kg AP8 (1.157 mg/kg) or 1 μmol/kg R243 (0.35744 mg/kg) twice daily. […] Total alanine aminotransferase (ALT) and aspartate transferase (AST) levels were determined in the plasma samples as per standard biochemical assays.
Cell suspension were prepared from freshly collected liver tissues using the TissueGrinder (TG, Fast Forward Discoveries GmbH, Mannheim, Germany) as detailed earlier. […] Cells were washed 3 times, stained with rat anti-mouse fluorescent antibodies (CD45-APC, CD11b-PE and F4/80-PE/Cy7, 0.2 μg/100 μL, Biolegend) for 1 h, Hoechst 33,342 (10 μg/100 μL, Thermo Fisher) for 30 min, and analyzed within 7 days. […]

[3] = system: RAW264.7 macrophages; assay: Alamar Blue cell viability assay, RAW264.7; type: cell-based, mouse; settings: 10 μmol/L, 24 h, with or without LPS/IFNγ; three independent experiments
Description: To assess the effects of AP8ii on the cell viability, cells were plated in 24-well plates, cultured overnight and incubated with AP8ii or R243 (10 μmol/L) with or without 100 ng/mL LPS and 10 ng/mL IFNγ (for 24 h, cell viability assays were performed using Alamar Blue reagent (Invitrogen, Carlsbad, CA, USA) as per manufacturer's instructions. The results are represented as% cell viability normalized to untreated control cells (at 100%). All measurements were performed in triplicates in three independent experiments.

[4] = molecular target: T1, CCR8 on LPS/IFNγ-activated RAW264.7 macrophages (Mus musculus, UniProt P56484); assay: Competitive peptide binding study (co-incubation and pre-incubation)
T1 construct: endogenous in cells
T1 sequence (P56484 1-353): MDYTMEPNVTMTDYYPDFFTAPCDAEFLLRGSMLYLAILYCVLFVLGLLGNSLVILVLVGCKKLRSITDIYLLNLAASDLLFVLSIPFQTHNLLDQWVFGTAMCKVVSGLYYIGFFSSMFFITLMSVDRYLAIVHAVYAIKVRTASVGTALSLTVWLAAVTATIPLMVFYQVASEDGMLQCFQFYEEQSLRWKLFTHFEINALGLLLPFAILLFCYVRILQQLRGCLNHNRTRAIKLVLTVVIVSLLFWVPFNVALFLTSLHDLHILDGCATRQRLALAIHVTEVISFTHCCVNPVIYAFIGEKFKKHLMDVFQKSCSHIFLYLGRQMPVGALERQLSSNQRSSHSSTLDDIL
Description: For competitive studies, the peptide binding protocol was used however competition with R243, CCL1 and anti-CCR8 antibody was performed. Two types of competitive studies were performed—co-incubation and pre-incubation where macrophages were either co-incubated with equimolar concentration of R243 (10 μmol/L), CCL1 (100 ng/mL) or anti-CCR8 antibody (5.0 μg/mL, Cat. No. MAB-8324, Novus biologicals, […], USA) and AP8ii (10 μmol/L), or preincubated with R243 (10 μmol/L), CCL1 (100 ng/mL) or anti-CCR8 antibody (5.0 μg/mL) for 2 h followed by addition of AP8ii (10 μmol/L) for an additional 4 h. Finally, images were captured at 10 ×, 20 × and 40 ×, and RhB intensity was analyzed using ImageJ software and normalized to the number of nuclei using DAPI.

Row | Molecule | remaining at 24 h, 0.95 mmol/L ([1]; 0.95 mmol/L peptide in 10 vol% human serum, 24 h, TFA quench, analytic HPLC C18, UV 280 nm, peak area, duplicates, read-out: peptide remained intact after 24 h of incubation) | half-life at 0.95 mmol/L ([1]; 0.95 mmol/L peptide in 10 vol% human serum, analytic HPLC UV 280 nm, read-out: t1/2 in human serum) | stability on exposure to serum (peak absolute area) ([1]; 10 vol% human serum, first 4 h, analytic HPLC UV 280 nm) | body weight during treatment [2] | toxicity (Alamar blue-based metabolic assay) [3] | AP8ii binding blocked, co-incubation study ([4]; competitor (R243 10 μmol/L, CCL1 100 ng/mL, anti-CCR8 antibody 5.0 μg/mL) co-incubated with RhB-labeled AP8ii 10 μmol/L 4 h) | AP8ii binding blocked, pre-incubation study ([4]; competitor (R243 10 μmol/L, CCL1 100 ng/mL, anti-CCR8 antibody 5.0 μg/mL) preincubated 2 h, then RhB-labeled AP8ii 10 μmol/L 4 h)
1 | YEWRFYHG [AP8ii, Tyr-Glu-Trp-Arg-Phe-Tyr-His-Gly] | > 82% | > 24 h | remained stable during the first 4 h | increased | no significant toxicity |  | 
2 | B1 |  |  |  |  |  | ~20% | ~30%
